Reference: patent US10550400B2, “Methods to monitor post-translational gene silencing activity in plant tissues/cell types relevant for pathogen entry, propagation or replication” (Paris Sciences et Lettres—Quartier Latin, priority 2014, dated 2020)

Key:
Assay type in all cases: in vivo, Arabidopsis thaliana
[1] = system: phloem-specific IR-PTGS sensor; test: Visual chlorotic phenotype of sprayed phloem-specific IR-PTGS sensor (SUC-SUL plants); conditions: for vein-centered chlorotic phenotype (IR-PTGS activity): sprayed on phloem-specific IR-PTGS sensor; for chlorotic phenotype / PTGS activity, phloem-specific reporter: 2 mM SA with 0.02% Silwet L-77, 5 days, SUC-SUL
Excerpt: A. […]
In step (b), said molecule, microorganism or extract can be applied either at seedling stage or at later developmental stages such as at rosette stage. This molecule, microorganism or extract is applied either in liquid medium in (micro) well-plates, by infiltration using a needle-less syringe or vacuum, or by spray using a concentration of surfactant that is known from people skilled in the art.
Visual observation of step (c) can be made several days, preferably 4 to 5 days, after step (b) The term “silencing” means down-regulating or antagonizing, at least partly, a targeted gene transcript.
For this purpose, they have sprayed a previously characterized phloem-specific IR-PTGS sensor (Dunoyer et al., 2005) with either (1) Salicylic acid (SA), a well-characterized phytohormone that plays a critical role in resistance against biotrophic pathogens, (2) 2,6-dichloroisonicotonic acid and benzo-(1,2,3)-thiadiazole-7-carbothioic acid S-methyl ester (BTH), a functional analog of SA that is regularly used by farmers to enhance disease resistance in crops, (3) Aliette, formulated fosetyl-Aluminium that can stimulate plant antimicrobial defense in cultivated plants but also protect them from fungal and oomycete infections through a potent and systemic fungicide activity, (4) Serenade, which is composed of formulated Bacillus subtilis (5) formulated Laminarine, a beta 1-3 glucan that mimics fungal cell wall and therefore promote natural antifungal defense responses in some cultivated plants; and have further monitored the effects of such treatments on the vein-centered chlorotic phenotype of this IR-PTGS reporter system. […] It is noteworthy that the presented molecular analyses allow us (i) to detect at which steps of the PTGS a given molecule is acting (small RNA biogenesis and/or RISC activity) (ii) to quantify the strength by which the candidate molecules is modulating RNA silencing in a given tissue that is relevant for disease management. […]

[2] = system: biosensor specific to xylem parenchyma cells; test: Visual chlorosis of sprayed xylem-specific biosensors (AAP6-p::SUL-LUS, IRX3-p::SUL-LUS); conditions: 2 mM SA with 0.02% Silwet L-77, 5 days, AAP6-p::SUL-LUS and IRX3-p::SUL-LUS; listed as SA
Method: Picture of 5-week-old SUC-SUL, HYD-p::SUL-LUS, AAP6-p::SUL-LUS, IRX3-p::SUL-LUS or GC1-p::SUL-LUS plants treated either Mock (0.02% Silwet L-77 only) or 2 mM of SA (with 0.02% Silwet L-77) for 5 days.
To test whether the increase level of PTGS detected in SA-treated phloem-specific IR-PTGS sensor is detectable to other tissues, the inventors have sprayed different tissue-specific biosensors with the same concentration of SA. The biosensors specific to hydathodes, xylem parenchyma cells, guard cells and companion cells of phloem were sprayed with SA and the level of chlorosis was assessed 5 day later (FIG. 6). […] These observations therefore highlight the importance of using different tissue-specific biosensors to screen natural or synthetic compounds, microorganisms, macro- or micro-organism extracts that can have a PTGS inducer activity specifically in a given tissue that is relevant to manage a specific disease. On the contrary, we are anticipating that the whole series of reporters will be also exploited to identify molecules, microorganisms or extracts that can induce PTGS/immune responses in all the above tissues. Such compounds, microorganisms or extracts will have the potential to confer broad-spectrum disease resistance and to restrict growth of pathogens with different modes of entry, propagation and replication. […]

[3] = system: SUL protein; test: Western blot of SUL protein levels in SA-treated SUC-SUL leaves; conditions: 2 mM SA + 0.01% Silwet L-77, 3 days, vs Mock
Method: C. Western blot analyses showing SUL and CIP4 protein levels in SUC-SUL leaves treated with either Mock (0.01% Silwet L-77 only) or with 2 mM of SA (+0.01% Silwet L-77) for 3 days.
(§1) For this purpose, they have sprayed a previously characterized phloem-specific IR-PTGS sensor (Dunoyer et al., 2005) with either (1) Salicylic acid (SA), a well-characterized phytohormone that plays a critical role in resistance against biotrophic pathogens, (2) 2,6-dichloroisonicotonic acid and benzo-(1,2,3)-thiadiazole-7-carbothioic acid S-methyl ester (BTH), a functional analog of SA that is regularly used by farmers to enhance disease resistance in crops, (3) Aliette, formulated fosetyl-Aluminium that can stimulate plant antimicrobial defense in cultivated plants but also protect them from fungal and oomycete infections through a potent and systemic fungicide activity, (4) Serenade, which is composed of formulated Bacillus subtilis (5) formulated Laminarine, a beta 1-3 glucan that mimics fungal cell wall and therefore promote natural antifungal defense responses in some cultivated plants; and have further monitored the effects of such treatments on the vein-centered chlorotic phenotype of this IR-PTGS reporter system. […]

[4] = system: SUL transcript; test: RT-qPCR of SUL transcript levels in SA-treated SUC-SUL leaves; conditions: 2 mM SA + 0.01% Silwet L-77, 3 days, vs Mock
Method: B. RT-qPCR analysis depicting SUL and CIP4 transcript levels in SUC-SUL leaves treated with either Mock (0.01% Silwet L-77 only) or with 2 mM of SA (+0.01% Silwet L-77) for 3 days.
as §1

[5] = system: artificial siRNAs
Excerpt: These level analyses will determine (i) at which steps of the RNA silencing pathway a given molecule, microorganism or extract is acting (small RNA biogenesis, accumulation and/or activity) (ii) the intensity by which a given molecule, microorganism or extract is modulating RNA silencing. Regarding the quantification of artificial or endogenous small RNA accumulation, Low Molecular Weight (LMW) Northern blot analyses or Real Time quantitative PCR (RT-qPCR) analyses can be used. Concerning the quantification of artificial or endogenous small RNA targets, High Molecular Weight (HMW) Northern analyses or RT-PCR analyses can be used. […]

Compound | vein-centered chlorotic phenotype (IR-PTGS activity) [1] | chlorotic phenotype / PTGS activity, xylem parenchyma reporters [2] | chlorotic phenotype / PTGS activity, phloem-specific reporter [1] | chlorotic phenotype / PTGS activity, phloem-specific reporter ([1]; listed as SA) | SUL protein levels [3] | SUL transcript accumulation [4] | accumulation of artificial siRNAs [5]
O=C(O)c1cc(Cl)nc(Cl)c1 [2,6-dichloroisonicotonic acid] | significant enhanced chlorotic phenotypes | – | – | – | – | – | –
O=C(O)c1ccccc1O [Salicylic acid] | significant enhanced chlorotic phenotypes | not in other silencing reporter tested | promotes PTGS activity | significant enhanced chlorotic phenotype | significant decrease | mild reduction | no significant effect
CSC(=O)c1cccc2nnsc12 [BTH, benzo-(1,2,3)-thiadiazole-7-carbothioic acid S-methyl ester] | significant enhanced chlorotic phenotypes | – | – | – | – | – | –
